# Marks after values point to notes of the source that are not given here.
# What was measured:
# [1] = Absorption and fluorescence measurements (quantum yield, lifetime); format: physicochemical; conditions: MeOH; for extinction coefficient (log ε): at λmax; for fluorescence quantum yield, absolute method (ΦF(absol)): integrating sphere; for fluorescence quantum yield, relative method (ΦF(relat)): rhodamin-G6 as reference; for fluorescence lifetime (τF): λexc = 506.1 nm
# Description: The singlet oxygen quantum yields (ΦΔ) and the fluorescence quantum yields (ΦF) of tested samples in MeOH were determined using published comparative (relative) methods with rhodamin-G6 used as a reference for fluorescence (ΦF = 0.94 in EtOH [31]), and bengal rose as a reference for singlet oxygen determinations (ΦΔ = 0.76 in MeOH [32]). Singlet oxygen measurements were performed with 1,3-diphenylisobenzofuran as the chemical scavenger of singlet oxygen by monitoring its decomposition at 417 nm. The ΦF values were also determined by an absolute method using an integrating sphere in an FLS1000 fluorimeter (Edinburgh Instruments, Edinburgh, UK). Fluorescence lifetimes were measured on the same fluorimeter upon excitation by HPL510 laser (Edinburgh Instruments, λ = 506.1 nm).
# [2] = tested on: SK-MEL-28 cells; test: Dark toxicity (without irradiation), Neutral Red uptake; format: cell-based, human; conditions: 24 h in the dark, compounds precipitated over listed values
# Description: (§1) The human cervical carcinoma (HeLa) and human melanoma (SK-MEL-28) cell lines were purchased from the American Type Cell Culture Collection (ATCC; Manassas, VA, USA). Both cell lines were cultured in Dulbecco’s modified Eagle’s medium (DMEM) without phenol red (Lonza, Verviers, Belgium) and supplemented with 10% heat-inactivated fetal bovine serum (Sigma-Aldrich (Merck, Darmstadt, Germany), 1% penicillin/streptomycin solution (Lonza), 10 mM HEPES buffer (Lonza), and 4 mM ultraglutamine I (alanyl-L-glutamine; Lonza). The cell lines were cultured in 75 cm^2 tissue culture flasks (TPP, Trasadingen, Switzerland) and maintained in a CO2 incubator at 37 °C in a humidified atmosphere of 5% CO2 and subcultured every 3−4 days. For the cytotoxicity experiments (phototoxicity and dark toxicity), cells were seeded into 96-well plates (TPP) at a density of 7.5 × 10^3 (HeLa and SK-MEL-28) cells per well for 24 h.
# (§2) Stock solutions of the investigated compounds were prepared in DMSO at a concentration of 0.5 mM (4b) or 1 mM (all other compounds) and were sterilized by filtration through 0.22 μm syringe MCE filters. The stock solutions were diluted by the above-mentioned cell culture medium to the required concentrations. The maximum DMSO concentration in the medium in the experiments was 1% (2% in case of cpd. 4b). Cytoxicity of DMSO at corresponding concentrations (without studied compounds) was assessed in all cytotoxicity experiments as well—no toxicity against SK-MEL-28 or HeLa cells was observed.
# To assess dark toxicities (inherent toxicities of the studied compounds without irradiation), SK-MEL-28 cells were treated with studied PSs for 24 h in the dark. Viability was evaluated after two washing steps using the Neutral Red (NR; Sigma-Aldrich (Merck, Darmstadt, Germany) uptake assay, based on the ability of the living cells to incorporate NR into their intact lysosomes (concentration of NR in cell culture medium was 30 μg/mL and incubation time with NR was 2 h). The absorbance of soluble NR in cell lysate was measured at λ = 540 nm using a Tecan Infinite 200 M plate reader (Tecan, Männedorf, Switzerland). The viability of each experimental group was expressed as the percentage of the untreated controls incubated under the same conditions (100%). After staining (before lysis), the cells were briefly investigated under the microscope to verify changes in cellular morphology and the presence of NR in lysosomes (orange-red spots in the cells). These observations were in agreement with NR measurements.
# (§3) The concentrations of the studied compounds that induced a 50% decrease in cellular viability after treatment under the dark conditions (TC50, the median toxic concentration) or after the photodynamic treatment (EC50, the median effective concentration) were calculated using GraphPad Prism software (version 9.1.2; GraphPad Software, Inc., San Diego, CA, USA) for each independent experiment. The data are presented as the means ± standard deviations of these values.
# [3] = tested on: human cervical carcinoma (HeLa) cells; test: Photodynamic activity (phototoxicity) after light activation, Neutral Red uptake; format: cell-based; conditions: for EC50: Homo sapiens, light or radiation study, HeLa, 12 h incubation, λ > 455 nm, 15.3 mW cm−2, 15 min, 13.7 J cm−2; for PDT activity improved over S3AlOHPc (fold): comparison with literature value of S3AlOHPc (ref 37); for EC50 higher than temoporfin (fold): comparison with literature value of temoporfin (ref 37)
# Description: as §1, §2
# (§4) For the photodynamic activity assessment experiments (phototoxicity), both HeLa and SK-MEL-28 cells were incubated overnight (12 h) with the studied compounds. The cells were then carefully and swiftly washed twice with a prewarmed sterile phosphate-buffered saline, fresh cell culture medium was added, and cells were subsequently irradiated for 15 min using a 450 W ozone-free Xe lamp (Newport; intensity reduced to 400 W). The lamp was equipped with a long-pass filter (Newport 20CGA-455) and an 8-cm water filter to cut off undesirable wavelengths and heat radiation, respectively (λ > 455 nm, 15.3 mW cm^−2, 15 min, 13.7 J cm^−2). Cellular viability was measured after an additional 24 h by the above-mentioned NR uptake assay. At least four independent experiments, each in triplicate, were performed.
# as §3
# [4] = tested on: human melanoma (SK-MEL-28) cells; test: as above; format: cell-based; conditions: for EC50: Homo sapiens, light or radiation study, 12 h incubation, λ > 455 nm, 15.3 mW cm−2, 15 min, 13.7 J cm−2
# Description: as §1, §2, §4, §3
compound,measurement,setting,value
"CC1=CC(C)=[N+]2C1=C(c1ccc(OCCCCCCCCN3C(=O)c4ccccc4C3=O)cc1)c1c(C)cc(C)n1[B-]2(F)F [2b, 1,3,5,7-Tetramethyl-8-{4-[8-(phthalimidyl)octyloxy]phenyl}-4,4-difluoro-4-bora-3a,4a-diaza-s-indacene]",absorption maximum (λmax),[1],498 nm
same,emission maximum (λF),[1],507 nm
same,extinction coefficient (log ε),[1],4.96
same,"fluorescence quantum yield, absolute method (ΦF(absol))",[1],0.44
same,"fluorescence quantum yield, relative method (ΦF(relat))",[1],0.42
same,fluorescence lifetime (τF),[1],2.88 ns
same,"TC50, dark toxicity",[2],>10 ^b μM
same,EC50,[3],2.4 ± 0.53 µM
same,"TC50/EC50, phototherapeutic index",[4],>2.64
same,EC50,[4],3.79 ± 0.2 µM
"CC1=C(I)C(C)=[N+]2C1=C(c1ccc(OCCCCCN3C(=O)c4ccccc4C3=O)cc1)c1c(C)c(I)c(C)n1[B-]2(F)F [3a, 2,6-Diiodo-1,3,5,7-tetramethyl-8-{4-[5-(phthalimidyl)pentyloxy]phenyl}-4,4-difluoro-4-bora-3a,4a-diaza-s-indacene]",absorption maximum (λmax),[1],530 nm
same,emission maximum (λF),[1],546 nm
same,extinction coefficient (log ε),[1],4.36
same,"fluorescence quantum yield, absolute method (ΦF(absol))",[1],0.022
same,"fluorescence quantum yield, relative method (ΦF(relat))",[1],0.024
same,fluorescence lifetime (τF),[1],0.17 ns
same,"TC50, dark toxicity",[2],>10 ^b μM
same,EC50,[3],0.14 ± 0.01 µM
same,PDT activity improved over S3AlOHPc (fold),[3],10 ×
same,EC50 higher than temoporfin (fold),[3],3 ×
same,"TC50/EC50, phototherapeutic index",[4],>192
same,EC50,[4],0.052 ± 0.01 µM
"CC1=C(I)C(C)=[N+]2C1=C(c1ccc(OCCCCCCCCN3C(=O)c4ccccc4C3=O)cc1)c1c(C)c(I)c(C)n1[B-]2(F)F [3b, 2,6-Diiodo-1,3,5,7-tetramethyl-8-{4-[8-(phthalimidyl)octyloxy]phenyl}-4,4-difluoro-4-bora-3a,4a-diaza-s-indacene]",absorption maximum (λmax),[1],530 nm
same,emission maximum (λF),[1],547 nm
same,extinction coefficient (log ε),[1],3.70
same,"fluorescence quantum yield, absolute method (ΦF(absol))",[1],0.030
same,"fluorescence quantum yield, relative method (ΦF(relat))",[1],0.023
same,fluorescence lifetime (τF),[1],0.17 ns
same,"TC50, dark toxicity",[2],>10 ^b μM
same,EC50,[3],1.57 ± 0.33 µM
same,"TC50/EC50, phototherapeutic index",[4],>8.13
same,EC50,[4],1.23 ± 0.14 µM
"CC1=C(Br)C(C)=[N+]2C1=C(c1ccc(OCCCCCN3C(=O)c4ccccc4C3=O)cc1)c1c(C)c(Br)c(C)n1[B-]2(F)F [4a, 2,6-Dibromo-1,3,5,7-tetramethyl-8-{4-[5-(phthalimidyl)pentyloxy]phenyl}-4,4-difluoro-4-bora-3a,4a-diaza-s-indacene]",absorption maximum (λmax),[1],525 nm
same,emission maximum (λF),[1],540 nm
same,extinction coefficient (log ε),[1],4.72
same,"fluorescence quantum yield, absolute method (ΦF(absol))",[1],0.21
same,"fluorescence quantum yield, relative method (ΦF(relat))",[1],0.19
same,fluorescence lifetime (τF),[1],1.37 ns
same,"TC50, dark toxicity",[2],>10 ^b μM
same,EC50,[3],0.21 ± 0.02 µM
same,PDT activity improved over S3AlOHPc (fold),[3],10 ×
same,EC50 higher than temoporfin (fold),[3],3 ×
same,"TC50/EC50, phototherapeutic index",[4],>123
same,EC50,[4],0.081 ± 0.023 µM
"CC1=C(Br)C(C)=[N+]2C1=C(c1ccc(OCCCCCCCCN3C(=O)c4ccccc4C3=O)cc1)c1c(C)c(Br)c(C)n1[B-]2(F)F [4b, 2,6-Dibromo-1,3,5,7-Tetramethyl-8-{4-[8-(phthalimidyl)octyloxy]phenyl}-4,4-difluoro-4-bora-3a,4a-diaza-s-indacene]",absorption maximum (λmax),[1],523 nm
same,emission maximum (λF),[1],538 nm
same,extinction coefficient (log ε),[1],4.04
same,"fluorescence quantum yield, absolute method (ΦF(absol))",[1],0.23
same,"fluorescence quantum yield, relative method (ΦF(relat))",[1],0.22
same,fluorescence lifetime (τF),[1],1.54 ns
same,"TC50, dark toxicity",[2],>10 ^b μM
same,EC50,[3],0.37 ± 0.07 µM
same,PDT activity improved over S3AlOHPc (fold),[3],10 ×
same,EC50 higher than temoporfin (fold),[3],3 ×
same,"TC50/EC50, phototherapeutic index",[4],>45.5
same,EC50,[4],0.22 ± 0.05 µM
"CC1=CC(C)=[N+]2C1=C(c1ccc(OCCCCCN)cc1)c1c(C)cc(C)n1[B-]2(F)F [5a, 1,3,5,7-Tetramethyl-8-[4-(5-aminopentyloxy)phenyl]-4,4-difluoro-4-bora-3a,4a-diaza-s-indacene]",absorption maximum (λmax),[1],498 nm
same,emission maximum (λF),[1],507 nm
same,extinction coefficient (log ε),[1],4.90
same,"fluorescence quantum yield, absolute method (ΦF(absol))",[1],0.43
same,"fluorescence quantum yield, relative method (ΦF(relat))",[1],0.44
same,fluorescence lifetime (τF),[1],3.25 ns
same,"TC50, dark toxicity",[2],>10 ^b μM
same,EC50,[3],9.4 ± 0.7 µM
same,"TC50/EC50, phototherapeutic index",[4],>2.78
same,EC50,[4],3.6 ± 0.66 µM
"CC1=CC(C)=[N+]2C1=C(c1ccc(OCCCCCCCCN)cc1)c1c(C)cc(C)n1[B-]2(F)F [5b, 1,3,5,7-Tetramethyl-8-[4-(8-aminooctyloxy)phenyl]-4,4-difluoro-4-bora-3a,4a-diaza-s-indacene]",absorption maximum (λmax),[1],498 nm
same,emission maximum (λF),[1],507 nm
same,extinction coefficient (log ε),[1],4.00
same,"fluorescence quantum yield, absolute method (ΦF(absol))",[1],0.50
same,"fluorescence quantum yield, relative method (ΦF(relat))",[1],0.47
same,fluorescence lifetime (τF),[1],3.22 ns
same,"TC50, dark toxicity",[2],>10 ^b μM
same,EC50,[3],1.57 ± 0.33 µM
same,"TC50/EC50, phototherapeutic index",[4],>4.13
same,EC50,[4],2.42 ± 0.46 µM
